Results from patent US9221765B2, “Inhibition and dispersion of bacterial biofilms with benzimidazole derivatives” (North Carolina State University, priority 2009, dated 2015).

Key:
[1] = tested on: vancomycin-resistant Enterococcus faecium (VRE); assay: Inhibition of VRE (E. faecium) biofilm formation (crystal violet); format: cell-based; conditions: E. faecium; FeSO4 alone, no test compound
Protocol: (§1) A dose-response study was then initiated in which both the IC50 and EC50 value of each compound towards the bacterial strains were determined (Table 1). Here, IC50 is defined as the concentration of compound that inhibits 50% biofilm development while EC50 is defined as the concentration of compound that disperses 50% of a pre-formed biofilm.
(§2) Procedure to Determine the Inhibitory Effect of Test Compounds on E. faecium, MRSA, S. epidermidis, PAO1 and MDRAB Biofilm Formation:
(§3) Inhibition assays were performed by taking an overnight culture of bacterial strain and subculturing it at an OD600 of 0.01 into the necessary media (brain heart infusion for E. faecium, tryptic soy broth with a 0.5% glucose supplement (TSBG) for MRSA, Luria-Bertani (LB) media for MDRAB, Luria-Bertani media without NaCl (LBNS) for PAO1 and tryptic soy broth with a 0.5% glucose supplement and a 3.0% NaCl supplement (TGN) for S. epidermidis. Stock solutions of predetermined concentrations of the test compound were then made in the necessary media. These stock solutions were aliquoted (100 μL) into the wells of the 96-well PVC microtiter plate. Sample plates were then wrapped in GLAD Press n′ Seal® followed by an incubation under stationary conditions for 24 h at 37° C. After incubation, the media was discarded from the wells and the plates were washed thoroughly with water. Plates were then stained with 100 μL of 0.1% solution of crystal violet (CV) and then incubated at ambient temperature for 30 min. Plates were washed with water again and the remaining stain was solubilized with 200 μL of 95% ethanol. A sample of 125 μL of solubilized CV stain from each well was transferred to the corresponding wells of a polystyrene microtiter dish. Biofilm inhibition was quantitated by measuring the OD540 of each well in which a negative control lane wherein no biofilm was formed served as a background and was subtracted out.
as §3, with “2-(2-amino-1H-benzo[d]imidazol-6-ylcarbamoyl)-3,4,5,6-tetrachlorobenzoic acid hydrochloride” for “test compound”, “media. Samples were then doped with 10.0 μM FeSO4 with samples with no test compound to examine effects of 10.0 μM FeSO4 on biofilm formation.” for “media.”

[2] = tested on: MRSA; assay: Inhibition of MRSA biofilm formation (crystal violet); format: cell-based, Staphylococcus aureus; conditions: FeSO4 alone, no test compound
[3] = tested on: S. epidermidis; assay: Inhibition of S. epidermidis biofilm formation (crystal violet); format: cell-based, Staphylococcus epidermidis; conditions: FeSO4 alone, no test compound
Protocol: as §1, §2, §3
as §3, with “2-(2-amino-1H-benzo[d]imidazol-6-ylcarbamoyl)-3,4,5,6-tetrachlorobenzoic acid hydrochloride” for “test compound”, “media. Samples were then doped with 10.0 μM FeSO4 with samples with no test compound to examine effects of 10.0 μM FeSO4 on biofilm formation.” for “media.”

O=S(=O)([O-])[O-].[Fe+2] [FeSO4, reference compound]
increase of biofilm formation (biofilm mass) [1]: 1.37 times | increase of biofilm formation (biofilm mass) [2]: 1.28 times | increase of biofilm formation (biofilm mass) [3]: 1.25 times
